The values that follow come from the SangsterLogP compilation.

Usually logP stands for the decadic logarithm of the partition coefficient of the neutral form, usually between octanol and water. Lower therefore signals a more hydrophilic compound. The compound `O=C(O)CCCCO/N=C(/c1ccnnc1)c1cccc(C(F)(F)F)c1` showed a logP of 1.81. With `O=C(O)CCCCCO/N=C(\c1cccc(C(F)(F)F)c1)c1cnccn1` the figure was 2.56; with `O=C(O)CCCCCO/N=C(\c1cccc(C(F)(F)F)c1)c1cccnn1`, 2.19; with `O=C(O)CCCCO/N=C(\c1ccccc1)c1cncnc1`, -0.21. In the case of `O=C(O)CCCCCO/N=C(\c1cncnc1)c1cccc(C(F)(F)F)c1` it was 1.07; in that of `O=C(O)CCCCO/N=C(\c1ccccc1)c1ccncn1`, -0.19. With `O=C(O)CCCCCO/N=C(/c1ccnnc1)c1cccc(C(F)(F)F)c1` the figure was 2.27. As to `O=C(O)CCCCCO/N=C(/c1ccccc1)c1ccncn1`, the logP is 0.08. In the case of `O=C(O)CCCCO/N=C(\c1cccc(C(F)(F)F)c1)c1cnccn1` it was 1.08.

`O=C(O)CCCO/N=C(/c1ccccc1)c1cncnc1`: the logP was -0.38. In the case of `O=C(O)CCCCO/N=C(\c1cccc(C(F)(F)F)c1)c1ncccn1` it was 1.53; in that of `O=C(O)CCCCCO/N=C(\c1cccc(C(F)(F)F)c1)c1ccncn1`, 2.49; in that of `O=C(O)CCCCON=C(c1cccc(C(F)(F)F)c1)c1ccncn1`, 1.74.

Compound `O=C(O)CCCCO/N=C(\c1ccccc1)c1ncccn1` registered a logP of 0.5. In the case of `O=C(O)CCCCCON=C(c1ccccc1)c1ncccn1` it was 1.07; in that of `O=C(O)CCCO/N=C(\c1ccccc1)c1ccncn1`, -0.47; in that of `O=C(O)CCCCO/N=C(\c1cncnc1)c1cccc(C(F)(F)F)c1`, 0.63. In the case of `O=C(O)CCCCCO/N=C(/c1cccc(C(F)(F)F)c1)c1ncccn1` it was 1.94; in that of `O=C(O)CCCO/N=C(\c1ccccc1)c1ncccn1`, 0.36.
